Values of other authors as cited in patent publication US20230270982A1, “DEVICES FOR REGIO-SPECIFIC RELEASE OF CARRIED DRUG AT ILEOCECAL REGION” (Teva Pharmaceutical Industries Ltd., priority 2020, published 2023).

Legend:
[1] = oral ester prodrug; extensive intestinal esterase degradation
[2] = test system: inflammatory bowel disease in mice; conditions: given topically

Row | Compound | bioavailability of the prodrug [1] | treating UC [2]
1 | CC(C)OC(=O)OCOP(=O)(CO[C@H](C)Cn1cnc2c(N)ncnc21)OCOC(=O)OC(C)C [Tenofovir disoproxil] | about 30% | 
2 | glatiramer acetate |  | effective
